According to patent publication US6967196B1, “Sulfonamide compounds and uses thereof” (Bristol-Myers Squibb Company, priority 1999, dated 2005):
Where a name gives a salt, the structure may show the parent alone. Read-outs that look alike come from different tables or passages of the source.

Test system: amyloid β production in transfected H4 (human neuroglioma) cells stably expressing APP constructs
Experiment: In vitro cell-based assay of inhibitors of amyloid β production (ELISA)
Conditions: amyloid β in medium by ELISA
Procedure, shortened: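 Cells expressing wild-type or variant APP were plated ≥6 h before medium was replaced with compound-containing medium (initial screen 10-100 μM) and incubated ~16 h. Secreted Aβ in medium was quantified by sandwich ELISA (C-terminal-specific mouse monoclonal capture, N-terminal rabbit polyclonal detection) against an Aβ standard curve.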

[1] = Homo sapiens, 16 h, transfected H4 cells stably expressing APP constructs, approximately 16 hours incubation, read-out: ACTIVITY (IC50, inhibition of amyloid β production)
[2] = transfected H4 cells stably expressing APP, approximately 16 hours incubation, read-out: ACTIVITY (IC50, inhibition of amyloid β production)
[3] = Homo sapiens, 16 h, transfected H4 cells stably expressing APP, approximately 16 hours incubation, read-out: ACTIVITY (IC50, inhibition of amyloid β production)
[4] = transfected H4 cells stably expressing APP constructs, approximately 16 hours incubation, read-out: ACTIVITY (IC50, inhibition of amyloid β production)
[5] = Homo sapiens, 16 h, transfected H4 cells expressing APP, approximately 16 hours incubation, read-out: ACTIVITY (IC50, inhibition of amyloid β production)
[6] = transfected H4 cells stably expressing APP, approximately 16 hours incubation, Table B, read-out: ACTIVITY (IC50, inhibition of amyloid β production)
[7] = transfected H4 cells stably expressing APP, approx. 16 h incubation, read-out: ACTIVITY (IC50, inhibition of amyloid β production)
[8] = Table B, transfected H4 cells stably expressing APP, approximately 16 hours incubation, read-out: ACTIVITY (inhibitory concentration IC50, inhibition of amyloid β production)

## C[C@H](CCCN(c1cc(Cl)ccc1Cl)S(=O)(=O)c1ccc(Cl)cc1)N(c1cc(Cl)ccc1Cl)S(=O)(=O)c1ccc(Cl)cc1 [Example 1158, 4-chloro-N-(2,5-dichlorophenyl)-N-[4-[N-(2,5-dichlorophenyl)-N-[(4-chlorophenyl)sulfonyl]amino]-1(R)-methylbutyl]benzenesulfonamide]
[1]
  IC50: > 500 nM

## methyl 3-[2-((1R)-1-{[(4-chlorophenyl)sulfonyl]-2,5-difluoroanilino}ethyl)-5-fluorophenyl]propanoate [Example 1065]
[2]
  IC50: > 500 nM

## Cc1ccc(OCCCN2CCCCC2)c(CN(c2cc(F)ccc2F)S(=O)(=O)c2ccc(Cl)cc2)c1 [Example 957, 4-chloro-N-(2,5-difluorophenyl)-N-{5-methyl-2-[3-(1-piperidinyl)propoxy]benzyl}benzenesulfonamide hydrochloride]
[3]
  IC50: > 500 nM

## CCS(=O)(=O)CCC[C@@H](C)N(c1cc(Cl)ccc1F)S(=O)(=O)c1ccc(Cl)cc1 [Example 1163, 4-chloro-N-[5-chloro-2-fluorophenyl]-N-[1(R)-methyl-(4-ethylsulfonyl)butyl]benzenesulfonamide]
[4]
  IC50: ≤ 25 nM

## N-{3-[2-({[(4-chlorophenyl)sulfonyl]-2,5-difluoroanilino}methyl)phenoxy]propyl}-N-methyl-2-naphthamide [Example 810]
[2]
  IC50: 100 to 500 nM

## C[C@H](C(=O)NCc1ccc2c(c1)OCO2)N(c1cc(Cl)ccc1F)S(=O)(=O)c1ccc(Cl)cc1 [Example 1319]
[5]
  IC50: > 500 nM

## COC(=O)[C@H](CS(=O)(=O)Cc1cc(F)ccc1[C@@H](C)N(c1cc(F)ccc1F)S(=O)(=O)c1ccc(Cl)cc1)NC(=O)OC(C)(C)C [Example 469, Methyl (2R)-2-[(tert-butoxycarbonyl)amino]-3-{[2-((1R)-1-{[(4-chlorophenyl)sulfonyl]-2,5-difluoroanilino}ethyl)-5-fluorobenzyl]sulfonyl}propanoate]
[6]
  IC50: 50 to 100 nM

## 2,2,2-trichloro-N-{3-[2-({[(4-chlorophenyl)sulfonyl]-2,5-difluoroanilino}methyl)phenoxy]propyl}-N-methylacetamide [Example 853]
[2]
  IC50: 100 to 500 nM

## C[C@H](C(=O)NCc1ccc(C2=CSNN2)cc1)N(c1cc(Cl)ccc1F)S(=O)(=O)c1ccc(Cl)cc1 [Example 1366]
[5]
  IC50: > 500 nM

## C[C@H](C(=O)N[C@H](C)C1CCCCC1)N(c1cc(Cl)ccc1F)S(=O)(=O)c1ccc(Cl)cc1 [Example 1351]
[5]
  IC50: > 500 nM

## 2-({[(4-chlorophenyl)sulfonyl]-2,5-difluoroanilino}methyl)phenyl acrylate [Example 681]
[7]
  IC50: 100 to 500 nM

## isobutyl 3-[2-(1-{[(4-chlorophenyl)sulfonyl]-2,5-difluoroanilino}ethyl)phenoxy]propyl(methyl)carbamate [Example 677]
[7]
  IC50: 100 to 500 nM

## CCOCCCNC(=O)[C@@H](C)N(c1cc(Cl)ccc1F)S(=O)(=O)c1ccc(Cl)cc1 [Example 1320]
[5]
  IC50: 100 to 500 nM

## N-{3-[2-({[(4-chlorophenyl)sulfonyl]-2,5-difluoroanilino}methyl)phenoxy]propyl}-2,3,4-trifluoro-N-methylbenzamide [Example 864]
[2]
  IC50: 100 to 500 nM

## 3-((4R)-4-{[(4-chlorophenyl)sulfonyl]-2,5-difluoroanilino}-7-fluoro-1,2,3,4-tetrahydro-1-naphthalenyl)propanoic acid [Example 1007]
[2]
  IC50: > 500 nM

## 2-((1R)-1-{[(4-chlorophenyl)sulfonyl]-2,5-difluoroanilino}ethyl)benzyl 1-piperidinecarboxylate [Example 284]
[6]
  IC50: 25 to 50 nM

## C[C@H](CCCNC(=O)OC(C)(C)C)N(c1cc(Cl)ccc1Cl)S(=O)(=O)c1ccc(Cl)cc1 [Example 1145, 4-chloro-N-(2,5-dichlorophenyl)-N-[4-[[(1,1-dimethylethoxy)carbonyl]amino]-1-methylbutyl]benzenesulfonamide]
[1]
  IC50: 100 to 500 nM

## N-{3-[2-(1-{[(4-chlorophenyl)sulfonyl]-2,5-difluoroanilino}ethyl)phenoxy]propyl}-3,4,5-trimethoxybenzamide [Example 651]
[7]
  IC50: 100 to 500 nM

## C[C@H](CCNc1c(NCC[C@@H](C)N(c2cc(F)ccc2F)S(=O)(=O)c2ccc(Cl)cc2)c(=O)c1=O)N(c1cc(F)ccc1F)S(=O)(=O)c1ccc(Cl)cc1 [Example 132, 4-Chloro-N-(2,5-difluorophenyl)-N-[3-[2-[4-chloro-N-(2,5-difluorophenyl)-N-[(3-amino)-1(R)-methylpropyl]benzenesulfonamide]-3,4-dioxo-1-cyclobutenyl]amine-1(R)-methylpropyl]benzenesulfonamide]
[8]
  IC50: ≤ 25 nM

## 2-((1R)-1-{[(4-chlorophenyl)sulfonyl]-2,5-difluoroanilino}ethyl)benzyl 2-methoxyethylcarbamate [Example 669]
[7]
  IC50: 100 to 500 nM

## C[C@H](C(=O)NC(C)(C)CO)N(c1cc(Cl)ccc1F)S(=O)(=O)c1ccc(Cl)cc1 [Example 1344]
[5]
  IC50: 100 to 500 nM

## CCSCCC[C@@H](C)N(c1cc(Cl)ccc1CO)S(=O)(=O)c1ccc(SCC)cc1 [Example 1232, 4-ethylthio-N-[5-chloro-2-(hydroxymethyl)phenyl]-N-[1(R)-methyl-(4-ethylthio)butyl]benzenesulfonamide]
[4]
  IC50: > 500 nM

## N-{3-[2-(1-{[(4-chlorophenyl)sulfonyl]-2,5-difluoroanilino}ethyl)phenoxy]propyl}-2-phenylcyclopropanecarboxamide [Example 789]
[7]
  IC50: 100 to 500 nM

## CC1(O)CCN(CCCOc2ccccc2CN(c2ccccc2)S(=O)(=O)c2ccc(Cl)cc2)CC1 [Example 965, 4-chloro-N-{2-[3-(4-hydroxy-4-methyl-1-piperidinyl)propoxy]benzyl}-N-phenylbenzenesulfonamide hydrochloride]
[3]
  IC50: > 500 nM

## C[C@H](c1ccccc1Cn1ncnn1)N(c1cc(F)ccc1F)S(=O)(=O)c1ccc(Cl)cc1 [Example 396]
Homo sapiens, 16 h, transfected H4 cells stably expressing APP, approximately 16 hours incubation, Table B, read-out: ACTIVITY (IC50, inhibition of amyloid β production)
  IC50: 50 to 100 nM

## 2,4-dichloro-N-{3-[2-(1-{[(4-chlorophenyl)sulfonyl]-2,5-difluoroanilino}ethyl)phenoxy]propyl}-N-methylbenzamide [Example 839]
[2]
  IC50: 100 to 500 nM

## 4-chloro-2-({[(4-chlorophenyl)sulfonyl]anilino}methyl)phenyl trifluoromethanesulfonate [Example 1090]
[4]
  IC50: > 10000 nM

## COc1ccc(CCNC(=O)[C@@H](C)N(c2cc(Cl)ccc2F)S(=O)(=O)c2ccc(Cl)cc2)cc1 [Example 1353]
[5]
  IC50: > 500 nM

## C[C@H](C(=O)NCc1cc(Cl)cc(Cl)c1)N(c1cc(Cl)ccc1F)S(=O)(=O)c1ccc(Cl)cc1 [Example 1365]
[5]
  IC50: > 500 nM

## C[C@H](CCC[N+](=O)[O-])N(c1cc(Cl)ccc1F)S(=O)(=O)c1ccc(Cl)cc1 [Example 1107, 4-chloro-N-(5-chloro-2-fluorophenyl)-N-[4-nitro-1(R)-methylbutyl]benzenesulfonamide]
[1]
  IC50: ≤ 25 nM

## O=S(=O)(c1ccc(Cl)cc1)N(Cc1ccccc1CCCCN1CCCCC1)c1ccccc1 [Example 981, 4-chloro-N-phenyl-N-{2-[4-(1-piperdinyl)butyl]benzyl}benzenesulfonamide hydrochloride]
[2]
  IC50: > 500 nM

## C[C@H](CCSCC(=O)O)N(c1cc(Cl)ccc1Cl)S(=O)(=O)c1ccc(Cl)cc1 [Example 180, (6R)-6-[(2,5-dichlorophenyl)[(4-chlorophenyl)sulfonyl]amino]-3-thioheptanoic Acid]
[8]
  IC50: ≤ 25 nM

## S-ethyl 4-[2-(1-{[(4-chlorophenyl)sulfonyl]-2,5-difluoroanilino}ethyl)phenoxy]ethyl(ethyl)thiocarbamate [Example 830]
[2]
  IC50: 100 to 500 nM

## COC(=O)[C@@H](CS(=O)(=O)Cc1cc(F)ccc1[C@@H](C)N(c1cc(F)ccc1F)S(=O)(=O)c1ccc(Cl)cc1)NC(=O)OC(C)(C)C [Example 471, Methyl (2S)-2-[(tert-butoxycarbonyl)amino]-3-{[2-((1R)-1-{[(4-chlorophenyl)sulfonyl]-2,5-difluoroanilino}ethyl)-5-fluorobenzyl]sulfonyl}propanoate]
[6]
  IC50: 50 to 100 nM

## CC(CC[C@@H](C)N(c1cc(Cl)ccc1Cl)S(=O)(=O)c1ccc(Cl)cc1)N1CCCC(S(C)(=O)=O)C1 (stereo partly shown) [Example 1140]
[4]
  IC50: 100 to 500 nM

## O=S(=O)(c1ccc(Cl)cc1)N(Cc1ccccc1OCCCN1CCCCC1)CC1CC1 [Example 984, 4-chloro-N-(cyclopropylmethyl-N-{2-[3-(1-piperidinyl)propoxy]benzyl}benzenesulfonamide hydrochloride]
[2]
  IC50: > 500 nM

## C[C@H](CCSCC(=O)O)N(c1cc(Cl)ccc1Cl)S(=O)(=O)c1ccc(Cl)cc1 [Example 1181, (6R)-6-[(2,5-dichlorophenyl)-[(4-chlorophenyl)sulfonyl]-amino]-3-thioheptanoic acid]
[4]
  IC50: ≤ 25 nM
